Measured values: US4792563A, “Insecticidal ethers” (Imperial Chemical Industries PLC, priority 1986, dated 1988)

How the values were obtained:
Type in all cases: in vivo
[1] = system: Diabrotica balteata (rootworm larvae); test: insecticidal mortality test, residual, filter paper/maize seed; conditions: 72 h, 3 days, read-out: grading of mortality, DB
Method: (§1) The activity of the Product was determined using variety of insect pests. The Product was used in the form of liquid preparations containing 500 , 100 or 10 parts per million (ppm) by weight of the Product. The preparations were made by dissolving the Product in acetone and diluting the solutions with water containing b 0.01% by weight of a wetting agent sold under the trade name "LISSAPOL" NX until the liquid preparations contained the required concentration of the Product. "Lissapol" is a Registered Trade Mark.
(§2) The test procedure adopted with regard to each pest was basically the same and comprised supporting a number of the pests on a medium which was usually a host plant or a foodstuff on which the pests feed, and treating either or both the pests and the medium with the preparations. The mortality of the pests was then assessed at peroods usually varying from one to three days after the treatment.
(§3) The results of the tests are given in Table IV for each of the Products, at the rate in parts per million given in the second column, as a grading of mortality designated as A, B or C wherein A indicates 80-100% mortality or knockdown, B indicates 50-79% mortality or knockdown and C indicates less than 50% mortality or knockdown.
(§4) In Table IV the pest organism used is designated by a letter code and the pest species, the support medium or food, and the type and duration of test is given in Table III.

[2] = system: Spodoptera exigua (lesser army worm - larvae); test: insecticidal mortality test, residual, cotton leaf; conditions: 72 h, 3 days, read-out: grading of mortality, SP
Method: as §1, §2, §3, §4
(lesser army worm - larvae)

[3] = system: Heliothis virescens (tobacco budworm - larvae); test: whole plant or invertebrate; conditions: in Gossypium hirsutum, 72 h, read-out: grading of mortality, HV
Method: as §1, §2, §3, §4
(tobacco budworm - larvae)

[4] = system: Tetranychus urticae (spider mites - adult); test: insecticidal mortality test, contact, French bean leaf; conditions: 72 h, 3 days, read-out: grading of mortality, TU
Method: as §1, §2, §3, §4

Myzus persicae (aphids) = test: insecticidal mortality test, contact, Chinese cabbage leaf; conditions: 72 h, 3 days, read-out: grading of mortality, MP
Method: as §1, §2, §3, §4

[5] = system: Blattella germanica (cockroach nymphs); test: insecticidal mortality test, residual, plastic pot; conditions: 72 h, 3 days, read-out: grading of mortality, BG
Method: as §1, §2, §3, §4

[6] = system: Musca domestica (houseflies - adults); test: insecticidal mortality test, contact, cotton wool/sugar; conditions: 24 h, 1 day, read-out: grading of mortality, MD
Method: as §1, §2, §3, §4

[7] = system: Musca domestica (houseflies - adults); test: knockdown test, cotton wool/sugar; conditions: 4 hours, read-out: grading of knockdown, MD/KD
Method: as §1, §2
In the case of the species Musca domestica (housefly), additional tests to determine the knockdown effect of the compounds were performed.
as §3, §4

[8] = system: Nephotettix cincticeps (green leaf hopper - nymphs); test: insecticidal mortality test, contact, rice plant; conditions: 72 h, 3 days, read-out: grading of mortality, NC
Method: as §1, §2, §3, §4
NC Nephotettix cincticeps

[9] = system: Niloparvata lugens (brown plant hopper - nymphs); test: insecticidal mortality test, contact, rice plant; conditions: 72 h, 3 days, read-out: grading of mortality, NL
Method: as §1, §2
as §3, with “knockdown. […]” for “knockdown.”

For `CCC(C)(COCc1cccc(Oc2ccccc2)c1)C(F)F` (racemic) [Compound 3, (RS)-1,1-Difluoro-2-ethyl-2-methyl-3(3-phenoxybenzyloxy)propane], which mortality at 500 ppm [1] is on record?
The mortality at 500 ppm was 80 to 100%.

What about the mortality at 500 ppm [2] of the same compound?
Its mortality at 500 ppm is 80 to 100%.

And the mortality at 500 ppm [3]?
Its mortality at 500 ppm is < 50%.

What about the mortality at 500 ppm [4] of the same compound?
The mortality at 500 ppm was < 50%.

What about the mortality at 500 ppm (Myzus persicae (aphids)) of the same compound?
Its mortality at 500 ppm is < 50%.

And the mortality at 500 ppm [5]?
The mortality at 500 ppm was < 50%.

What about the mortality at 500 ppm [6] of the same compound?
Its mortality at 500 ppm is 50 to 79%.

What about the pest or weed control at 500 ppm [7] of the same compound?
The pest or weed control at 500 ppm was 50 to 79%.

What about the mortality at 500 ppm [8] of the same compound?
Its mortality at 500 ppm is < 50%.

What does the source list for `CC(C)(COCc1ccc(F)c(Oc2ccccc2)c1)C(F)F` [Compound 1, 1,1-difluoro-2,2-dimethyl-3-(4-fluoro-3-phenoxybenzyloxy)propane]?
mortality at 500 ppm [1]: 80 to 100%; mortality at 500 ppm [2]: 80 to 100%; mortality at 500 ppm [3]: 80 to 100%; mortality at 500 ppm [4]: < 50%; mortality at 500 ppm (Myzus persicae (aphids)): < 50%; mortality at 500 ppm [9]: 80 to 100%; mortality at 500 ppm [5]: 80 to 100%; mortality at 500 ppm [6]: 80 to 100%; pest or weed control at 500 ppm [7]: 80 to 100%

With `CC(C)(COCc1cccc(Oc2ccccc2)c1)C(F)F` [Compound 2, 1,1-Difluoro-2,2-dimethyl-3-(3-phenoxybenzyloxy)propane] as the compound, how does the mortality at 500 ppm [1] read?
The mortality at 500 ppm was 80 to 100%.

What about the mortality at 500 ppm [2] of the same compound?
Its mortality at 500 ppm is < 50%.

And the mortality at 500 ppm [3]?
The mortality at 500 ppm was < 50%.

And the mortality at 500 ppm [4]?
Its mortality at 500 ppm is < 50%.

And the mortality at 500 ppm (Myzus persicae (aphids))?
The mortality at 500 ppm was < 50%.

And the mortality at 500 ppm [5]?
The mortality at 500 ppm was 80 to 100%.

What about the mortality at 500 ppm [6] of the same compound?
Its mortality at 500 ppm is 80 to 100%.

What about the pest or weed control at 500 ppm [7] of the same compound?
The pest or weed control at 500 ppm was 80 to 100%.

What about the mortality at 500 ppm [8] of the same compound?
The mortality at 500 ppm was 80 to 100%.

Which mortality at 500 ppm [1] does the source give for `CC(C)(COCc1ccc(F)c(Cc2ccccc2)c1)C(F)F` [Compound 4, 1,1-Difluoro-2,2-dimethyl-3-(4-fluoro-3-benzylbenzyloxy)propane] here?
The mortality at 500 ppm was 80 to 100%.

And the mortality at 500 ppm [2]?
Its mortality at 500 ppm is 50 to 79%.

And the mortality at 500 ppm [3]?
Its mortality at 500 ppm is < 50%.

What about the mortality at 500 ppm [4] of the same compound?
Its mortality at 500 ppm is < 50%.

And the mortality at 500 ppm (Myzus persicae (aphids))?
Its mortality at 500 ppm is < 50%.

What about the mortality at 500 ppm [5] of the same compound?
Its mortality at 500 ppm is 50 to 79%.

What about the mortality at 500 ppm [6] of the same compound?
The mortality at 500 ppm was 80 to 100%.

And the pest or weed control at 500 ppm [7]?
Its pest or weed control at 500 ppm is < 50%.

`CC(C)(COCc1cccc(Oc2ccccc2)n1)C(F)F` [Compound 5, 1,1-Difluoro-2,2-dimethyl-3-[(6-phenoxypyrid-2-yl)methyloxy]propane] was tested. Which mortality at 500 ppm [1] did it give?
Its mortality at 500 ppm is 80 to 100%.

What about the mortality at 500 ppm [2] of the same compound?
Its mortality at 500 ppm is 80 to 100%.

What about the mortality at 500 ppm [3] of the same compound?
Its mortality at 500 ppm is < 50%.

What about the mortality at 500 ppm [4] of the same compound?
The mortality at 500 ppm was 80 to 100%.

What about the mortality at 500 ppm (Myzus persicae (aphids)) of the same compound?
The mortality at 500 ppm was 50 to 79%.

And the mortality at 500 ppm [9]?
Its mortality at 500 ppm is 80 to 100%.

What about the mortality at 500 ppm [5] of the same compound?
Its mortality at 500 ppm is 80 to 100%.

And the mortality at 500 ppm [6]?
Its mortality at 500 ppm is 80 to 100%.

And the pest or weed control at 500 ppm [7]?
Its pest or weed control at 500 ppm is 80 to 100%.

What does the source list for `CC(C)(COCc1ccc(F)c(Nc2ccccc2)c1)C(F)F` [Compound 6, 1,1-Difluoro-2,2-dimethyl-3-(3-phenylamino-4-fluorobenzyloxy)propane]?
mortality at 500 ppm [1]: 80 to 100%; mortality at 500 ppm [2]: 80 to 100%; mortality at 500 ppm [3]: 80 to 100%; mortality at 500 ppm [4]: 80 to 100%; mortality at 500 ppm (Myzus persicae (aphids)): 80 to 100%; mortality at 500 ppm [6]: < 50%; pest or weed control at 500 ppm [7]: 50 to 79%; mortality at 500 ppm [8]: 80 to 100%

Which mortality at 500 ppm [1] does the source give for `CC(C)(CF)COCc1ccc(F)c(Oc2ccccc2)c1` [Compound 7, 1-Fluoro-2,2-dimethyl-3-(4-fluoro-3-phenoxybenzyloxy)propane] here?
Its mortality at 500 ppm is 80 to 100%.

What about the mortality at 500 ppm [2] of the same compound?
The mortality at 500 ppm was 80 to 100%.

And the mortality at 500 ppm [3]?
The mortality at 500 ppm was 80 to 100%.

What about the mortality at 500 ppm [4] of the same compound?
Its mortality at 500 ppm is < 50%.

What about the mortality at 500 ppm (Myzus persicae (aphids)) of the same compound?
Its mortality at 500 ppm is < 50%.

What about the mortality at 500 ppm [5] of the same compound?
Its mortality at 500 ppm is 80 to 100%.

What about the mortality at 500 ppm [6] of the same compound?
Its mortality at 500 ppm is 80 to 100%.

What about the pest or weed control at 500 ppm [7] of the same compound?
The pest or weed control at 500 ppm was 80 to 100%.

And the mortality at 500 ppm [8]?
The mortality at 500 ppm was 80 to 100%.

What does the source list for `CC(C)(CF)COCc1cccc(Oc2ccccc2)c1` [Compound 8, 1-fluoro-2,2-dimethyl-3-(3-phenoxybenzyloxy)propane]?
mortality at 500 ppm [1]: 80 to 100%; mortality at 500 ppm [2]: 80 to 100%; mortality at 500 ppm [3]: 50 to 79%; mortality at 500 ppm [4]: < 50%; mortality at 500 ppm (Myzus persicae (aphids)): < 50%; mortality at 500 ppm [5]: < 50%; mortality at 500 ppm [6]: 50 to 79%; pest or weed control at 500 ppm [7]: < 50%; mortality at 500 ppm [8]: 80 to 100%

Which mortality at 500 ppm [1] does the source give for `Fc1ccc(COCC2(C(F)F)CCCC2)cc1Oc1ccccc1` [Compound 21, 1-Difluoromethyl-l-(4-fluoro-3-phenoxybenzyloxymethyl)cyclopentane] here?
Its mortality at 500 ppm is 80 to 100%.

And the mortality at 500 ppm [2]?
Its mortality at 500 ppm is < 50%.

What about the mortality at 500 ppm [3] of the same compound?
Its mortality at 500 ppm is 50 to 79%.

What about the mortality at 500 ppm [4] of the same compound?
The mortality at 500 ppm was < 50%.

What about the mortality at 500 ppm (Myzus persicae (aphids)) of the same compound?
The mortality at 500 ppm was < 50%.

And the mortality at 500 ppm [6]?
Its mortality at 500 ppm is < 50%.

What about the pest or weed control at 500 ppm [7] of the same compound?
The pest or weed control at 500 ppm was < 50%.

And the mortality at 500 ppm [8]?
The mortality at 500 ppm was 80 to 100%.
